Reference: patent US20170050957A1, “4-AMINO-6-(HETEROCYCLIC)PICOLINATES AND 6-AMINO-2-(HETEROCYCLIC)PYRIMIDINE-4-CARBOXYLATES AND THEIR USE AS HERBICIDES” (Dow AgroSciences LLC, priority 2013, published 2017)
Like-named read-outs stand apart in the source and are kept apart here.

Columns and labels:
[1] = test system: Key Broadleaf Weed and Crop Species; assay: Post-emergent Test II herbicidal activity (Table 15); assay type: in vivo; settings: post-emergence, 336 h, 14 d; for pest or weed control at 35 g/ha: 35 g ai/ha; for pest or weed control at 70 g/ha: 70 g ai/ha; for pest or weed control at 140 g/ha: 140 g ai/ha
How it was run: (§1)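 Greenhouse-grown seedlings at first/second true leaf receive a track spray at 187 L/ha, using a highest rate plus two-fold serial dilutions down to 1/16×. Watering is by subirrigation to avoid wash-off. Percent injury (0-100) is judged by eye at 14 d against untreated plants.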

[2] = test system: Key Grass and Sedge Weeds as well as Grass Crops; assay: Post-emergent Test II herbicidal activity (Table 16); assay type: in vivo; settings: post-emergence, 336 h, 14 days after application; for pest or weed control at 35 g/ha: 35 g ai/ha; for pest or weed control at 70 g/ha: 70 g ai/ha; for pest or weed control at 140 g/ha: 140 g ai/ha
How it was run: as §1

[3] = Abutilon theophrasti, velvetleaf (Abutilon theophrasti), read-out: Visual Growth Reduction (%) 14 Days After Application, ABUTH
[4] = Amaranthus retroflexus, redroot pigweed (Amaranthus retroflexus), read-out: Visual Growth Reduction (%) 14 Days After Application, AMARE
[5] = Brassica napus, oilseed rape, canola (Brassica napus), read-out: Visual Growth Reduction (%) 14 Days After Application, BRSNN
[6] = Chenopodium album, lambsquarters (Chenopodium album), read-out: Visual Growth Reduction (%) 14 Days After Application, CHEAL
[7] = Euphorbia heterophylla, wild poinsettia (Euphorbia heterophylla), read-out: Visual Growth Reduction (%) 14 Days After Application, EPHHL
[8] = Helianthus annuus, sunflower (Helianthus annuus), read-out: Visual Growth Reduction (%) 14 Days After Application, HELAN
[9] = Cyperus esculentus, yellow nutsedge (Cyperus esculentus), read-out: Visual Growth Reduction (%) 14 Days After Application CYPES
[10] = Echinochloa crus-galli, barnyardgrass (Echinochloa crus-galli), read-out: Visual Growth Reduction (%) 14 Days After Application ECHCG
[11] = Oryza sativa, rice (Oryza sativa), read-out: Visual Growth Reduction (%) 14 Days After Application ORYSA
[12] = Setaria faberi, giant foxtail (Setaria faberi), read-out: Visual Growth Reduction (%) 14 Days After Application SETFA
[13] = Triticum aestivum, wheat, spring (Triticum aestivum), read-out: Visual Growth Reduction (%) 14 Days After Application TRZAS
[14] = Zea mays, maize, corn (Zea mays), read-out: Visual Growth Reduction (%) 14 Days After Application ZEAMX

Nc1c(F)c(-c2ccc3scnc3c2)nc(C(=O)O)c1Cl [Compound 6.02]
30 to 44%: pest or weed control at 140 g/ha [2, 13]
60 to 74%: pest or weed control at 140 g/ha [2, 12]
45 to 59%: pest or weed control at 35 g/ha [2, 9] | pest or weed control at 70 g/ha [2, 9] | pest or weed control at 140 g/ha [2, 9] | pest or weed control at 70 g/ha [2, 12]
0 to 29%: pest or weed control at 35 g/ha [2, 11] | pest or weed control at 70 g/ha [2, 11] | pest or weed control at 140 g/ha [2, 11] | pest or weed control at 35 g/ha [2, 12] | pest or weed control at 35 g/ha [2, 13] | pest or weed control at 70 g/ha [2, 13] | pest or weed control at 35 g/ha [2, 14] | pest or weed control at 70 g/ha [2, 14] | pest or weed control at 140 g/ha [2, 14]
85 to 94%: pest or weed control at 35 g/ha [1, 3] | pest or weed control at 70 g/ha [1, 3] | pest or weed control at 140 g/ha [1, 3] | pest or weed control at 140 g/ha [2, 10]
186 to 187 °C: melting point
75 to 84%: pest or weed control at 35 g/ha [2, 10] | pest or weed control at 70 g/ha [2, 10]
95 to 100%: pest or weed control at 35 g/ha [1, 4] | pest or weed control at 70 g/ha [1, 4] | pest or weed control at 140 g/ha [1, 4] | pest or weed control at 35 g/ha [1, 5] | pest or weed control at 70 g/ha [1, 5] | pest or weed control at 140 g/ha [1, 5] | pest or weed control at 35 g/ha [1, 6] | pest or weed control at 70 g/ha [1, 6] | pest or weed control at 140 g/ha [1, 6] | pest or weed control at 35 g/ha [1, 7] | pest or weed control at 70 g/ha [1, 7] | pest or weed control at 140 g/ha [1, 7] | pest or weed control at 35 g/ha [1, 8] | pest or weed control at 70 g/ha [1, 8] | pest or weed control at 140 g/ha [1, 8]
